Measured values reported in US9376382B2, “N-substituted isopropyldimethyl azulene sulfonamide derivatives, and preparation method and use thereof” (Sichuan Guokang Pharmaceutical Co., Ltd., priority 2011, dated 2016).

Legend:
[1] = High-temperature test (60° C.), stability study; type: physicochemical; conditions: open-stored; for Appearance Day 5: Day 5, cell wraps; for Appearance Day 5 / Appearance Day 10: first line given; for Appearance Day 10: Day 10, cell wraps;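 for all read-outs here: samples kept uncovered in dishes at 60 °C for up to 10 days and examined on Day 5 and Day 10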
Protocol: (§1) The test samples were open-stored in culture dishes at 60° C. for 10 days, and taken and detected on Day 5 and Day 10. • The characteristics, especially colour change were observed. • Melting points were measured by automatic melting point apparatus. • By self-reflection, TLC is used to observe whether the spot numbers were increased after 5 days and 10 days.

[2] = Intense light irradiation test (4500LX ± 500LX), stability study; type: physicochemical; conditions: for Appearance Day 0: Day 0, cell wraps; for Appearance Day 0 / Appearance Day 5 / Appearance Day 10: first line given; for Appearance Day 5: Day 5, cell wraps; for Appearance Day 10: Day 10, cell wraps
Protocol: (§2) The test samples were open-stored in “adjustable light boxes” under the conditions of illumination of 4500LX±500LX for 10 days, and taken and detected on Day 5 and Day 10 with regards to dry items. • The characteristics, especially colour change was observed. • Melting points were measured by an automatic melting point apparatus. • By self-reflection, TLC is used to observe whether the spot numbers were increased after 5 days and 10 days.

[3] = Stability studies (light, humidity, heat), overall comparison; conditions: for light, humidity and heat stability in words: summary of high-temperature, high humidity and intense light tests
Protocol: as §1
(§3) The test samples were open-stored in closed constant humidity desiccators under the condition of 25° C. and relative humidity of 90%+5% for 10 days, and taken and detected on Day 5 and Day 10. Meanwhile, each sample was accurately weighed before and after test.
as §2

[4] = High humidity test (25° C., relative humidity 90% ± 5%), stability study; type: physicochemical; conditions: RH 90% ± 5%; for Appearance Day 0: Day 0, cell wraps; for Appearance Day 0 / Appearance Day 5 / Appearance Day 10: first line given; for Appearance Day 5: Day 5, cell wraps; for Appearance Day 10: Day 10, cell wraps;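 for all read-outs here: samples kept uncovered in sealed humidity desiccators, appearance judged mainly by colour change, melting point on an automatic apparatus, TLC checked for extra spots versus start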
Protocol: as §3
The characteristics, especially colour change was observed.
Melting points were measured by an automatic melting point apparatus.
By self-reflection, TLC is used to observe whether the spot numbers were increased after 5 days and 10 days.

[5] = system: ethanol-induced gastric ulcer; assay: Anhydrous ethanol-induced gastric ulcer in mice; type: in vivo, Kunming mice; design: key to Gastri ulcer score (X ± SD) / Ulcer score (X ± SD) / Gastric ulcer score (X ± SD): summed pathology score: congestion 1, hemorrhage/erosion 1, linear erosion 3; conditions: for Inhibition rate (%): inhibition rate of ulcer vs model group; for Gastric ulcer score (X ± SD) / Gastri ulcer score (X ± SD) / Ulcer score (X ± SD): mice, intragastric once a day for five days; for anti-gastric ulcer effect in words: ethanol-induced gastric ulcer in mice, compared to the model group; for Gastri ulcer score (X ± SD): dose equimolar to azulene sulfonate sodium 3.0 mg/kg (Omeprazole 13.4 mg/kg), model group 13.00 ± 1.77; for Ulcer score (X ± SD): equimolar doses, model group 20.33 ± 12.23
Protocol: Kunming mice, half male and half female, weighing 18-22 g, provided by the West China Animal Center
(1) Azulene sodium sulphonate was added with 0.5% CMC to prepare a suspension with concentration of 0.15 mg/ml.
(2) 20 mg of Omeprazole was added with 0.5% CMC to prepare a suspension with concentration of 0.67 mg/ml.
Kunming mice were randomly grouped according the body weight (one model control group or negative control group, one Omeprazole control group or positive control group, one Azulene sodium sulphonate control group, twelve test drug groups), eight mice for each group, half male and half female.
Administration: Model control group was administrated intragastrically with 0.5% CMC solution at a dose of 0.4 ml/20 g; Omeprazole control group was administrated intragastrically with Omeprazole at a dose of 0.4 ml/20 g, Azulene sodium sulphonate control group and each test drug groups were administrated intragastrically with their respective drug at a dose of 0.4 ml/20 g. The mice in each group were administrated once a day for successive five days. 0.5 hour after final administration, the mice in each group were administrated intragastrically with 0.5 ml of anhydrous ethanol, one hour later the mice were executed and dissected, and their stomaches were taken, washed and scored according to the pathological degree. For local congestion and rubefaction, score was 1; for petechial hemorrhage or erosion, score was respectively 1, for each linear erosion, score was 3. Statistical analysis was performed. Ulcer scores were calculated, significant differences between the groups were compared and the inhibition rates of ulcer were calculated [Inhibition rate of ulcer=(ulcer score of model group−ulcer score of drug administration group)/ulcer score of model group].

[6] = Table 6, model group 17.86 ± 8.43
[7] = Table 7, model group 19.71 ± 7.18

Compound | Melting point Day 0 [1] | Spot numbers on TLC Day 0 [1] | Melting point Day 5 [1] | Spot numbers on TLC Day 5 [1] | Appearance Day 5 [1] | Melting point Day 10 [1] | Spot numbers on TLC Day 10 [1] | Appearance Day 10 [1] | Melting point Day 0 [2] | Spot numbers on TLC Day 0 [2] | Appearance Day 0 [2] | Melting point Day 5 [2] | Spot numbers on TLC Day 5 [2] | Appearance Day 5 [2] | melting point [°C] | Inhibition rate (%) ([5]; Table 6) | Gastric ulcer score (X ± SD) [5, 6] | anti-gastric ulcer effect in words [5] | Inhibition rate (%) ([5]; Table 7) | Gastric ulcer score (X ± SD) [5, 7] | also measured
Cc1cc(S(=O)(=O)NC(C)C)c2c(C)ccc(C(C)C)cc1-2 [4c, N,5-diisopropyl-3,8-dimethyl-1-azulene sulfonamide] | 127.5-130.0 °C | 1 | 127.5-129.5 °C | 1 | purple | 127.5-129.5 °C | 1 | purple | 127.5-130.0 °C | 1 | purple | 127.0-129.5 °C | 1 | purple | 128 to 130 |  |  |  |  |  | Melting point Day 10 [2]: 125.0-126.5 °C; Spot numbers on TLC Day 10 [2]: 2; Appearance Day 10 [2]: purple; light, humidity and heat stability in words [3]: better light, humidity and heat stability than azulene sulfonate sodium; Melting point Day 0 [4]: 127.5-130.0 °C; Spot numbers on TLC Day 0 [4]: 1; hygroscopic rate (%) Day 0 [4]: 0.95%; Appearance Day 0 [4]: purple; Melting point Day 5 [4]: 128.0-130.5 °C; Spot numbers on TLC Day 5 [4]: 1; hygroscopic rate (%) Day 5 [4]: 1.32%; Appearance Day 5 [4]: purple; Melting point Day 10 [4]: 128.0-130.5 °C; Spot numbers on TLC Day 10 [4]: 1; Appearance Day 10 [4]: purple
Cc1cc(S(=O)(=O)NCC(C)C)c2c(C)ccc(C(C)C)cc1-2 [4e, N-isobutyl-3,8-dimethyl-5-isopropyl-1-azulene sulfonamide] | 117.0-118.0 °C | 1 | 117.5-118.5 °C | 1 | purple | 117.5-118.5 °C | 1 | purple | 117.0-118.0 °C | 1 | purple | 117.5-118.0 °C | 1 | purple | 117 to 118 |  |  |  |  |  | Melting point Day 10 [2]: 115.0-117.5 °C; Spot numbers on TLC Day 10 [2]: 2; Appearance Day 10 [2]: purple; light, humidity and heat stability in words [3]: better light, humidity and heat stability than azulene sulfonate sodium; Melting point Day 0 [4]: 117.0-118.0 °C; Spot numbers on TLC Day 0 [4]: 1; hygroscopic rate (%) Day 0 [4]: 1.07%; Appearance Day 0 [4]: purple; Melting point Day 5 [4]: 116.5-118.5 °C; Spot numbers on TLC Day 5 [4]: 1; hygroscopic rate (%) Day 5 [4]: 1.51%; Appearance Day 5 [4]: purple; Melting point Day 10 [4]: 116.5-118.5 °C; Spot numbers on TLC Day 10 [4]: 1; Appearance Day 10 [4]: purple
COC(=O)C(Cc1c[nH]c2ccccc12)NS(=O)(=O)C1=C2C(C)=C=C=C(C(C)C)C=C2C(C)=C1 (stereo not shown) [5d, N-2-(indol-3-methyl)-2-methoxyformyl methylene-3′,8′-dimethyl-5′-isopropyl azulene-1′-sulfonamide] |  |  |  |  |  |  |  |  |  |  |  |  |  |  | 178 to 180 | 51.23 | 8.71 ± 4.93 | stronger and more significant anti-gastric ulcer capability |  |  | 
COC(=O)CCNS(=O)(=O)C1=C2C(C)=C=C=C(C(C)C)C=C2C(C)=C1 [5h, N-3-methoxyformylethyl-3′,8′-dimethyl-5′-isopropyl azulene-1′-sulfonamide] |  |  |  |  |  |  |  |  |  |  |  |  |  |  | 94 to 96 | 50.78 | 8.79 ± 4.38 | stronger and more significant anti-gastric ulcer capability |  |  | 
CC1=C=C=C(C(C)C)C=C2C(C)=CC(S(=O)(=O)NC(CC(C)C)C(=O)O)=C12 (stereo not shown) [6b, N-2-(2-methylpropyl)-2-carboxymethylene-3′,8′-dimethyl-5′-isopropyl azulene-1′-sulfonamide] |  |  |  |  |  |  |  |  |  |  |  |  |  |  | 44 to 46 |  |  | stronger and more significant anti-gastric ulcer capability | 50.94 | 9.67 ± 4.25 | 
Cc1cc(S(=O)(=O)NC(Cc2c[nH]c3ccccc23)C(=O)O)c2c(C)ccc(C(C)C)cc1-2 (stereo not shown) [6c, N-2-(indol-3-methyl)-2-carboxymethylene-3′,8′-dimethyl-5′-isopropyl azulene-1′-sulfonamide] |  |  |  |  |  |  |  |  |  |  |  |  |  |  |  |  |  | stronger and more significant anti-gastric ulcer capability | 55.05 | 8.86 ± 4.81 | 
CC1=C=C=C(C(C)C)C=C2C(C)=CC(S(=O)(=O)NCC(=O)N/N=C/c3cccs3)=C12 [8a] |  |  |  |  |  |  |  |  |  |  |  |  |  |  | 69 to 70 |  |  | stronger and more significant anti-gastric ulcer capability | 48.96 | 10.06 ± 5.60 | 
Cc1cc(S(=O)(=O)[O-])c2c(C)ccc(C(C)C)cc1-2.[Na+] [Azulene sulfonate sodium, 3,8-dimethyl-5-isopropyl azulene-1-sodium sulphonate, reference compound] | 104.0-106.0 °C | 1 | 102.5-104.0 °C | 2 | blue flake | 98.5-100.0 °C | 4 | light blue | 104.0-106.0 °C | 1 | dark blue | 102.5-105.5 °C | 3 | blue |  | 52.80 | 8.43 ± 5.74 |  | 52.16 | 9.43 ± 5.74 | Inhibition rate (%) ([5]; Table 4): 45.08%; Gastri ulcer score (X ± SD) ([5]; Table 4): 7.14 ± 4.73; Inhibition rate (%) ([5]; Table 5): 32.56%; Ulcer score (X ± SD) ([5]; Table 5): 13.71 ± 10.75; Melting point Day 10 [2]: 98.54-103.5 °C; Spot numbers on TLC Day 10 [2]: >4; Appearance Day 10 [2]: light; light stability and heat stability in words ([3]; background statement, found by experiments): poor light stability and heat stability; Melting point Day 0 [4]: 104.0-106.0 °C; Spot numbers on TLC Day 0 [4]: 1; hygroscopic rate (%) Day 0 [4]: 2.16%; Appearance Day 0 [4]: dark; Melting point Day 5 [4]: 100.5-105.5 °C; Spot numbers on TLC Day 5 [4]: 3; hygroscopic rate (%) Day 5 [4]: 3.69%; Appearance Day 5 [4]: blue; Melting point Day 10 [4]: 98.5-102.0 °C; Spot numbers on TLC Day 10 [4]: 3; Appearance Day 10 [4]: light
COc1ccc2[nH]c([S+]([O-])Cc3ncc(C)c(OC)c3C)nc2c1 (stereo not shown) [Omeprazole, reference compound] |  |  |  |  |  |  |  |  |  |  |  |  |  |  |  | 59.41 | 7.25 ± 7.15 |  | 58.25 | 8.23 ± 3.18 | Inhibition rate (%) ([5]; Table 4): 47.23%; Gastri ulcer score (X ± SD) ([5]; Table 4): 6.86 ± 3.77; Inhibition rate (%) ([5]; Table 5): 36.74%; Ulcer score (X ± SD) ([5]; Table 5): 12.86 ± 11.89
